# Reference: US8067009B1, “Metalloproteinase oligopeptides and their therapeutic use” (priority 2011, dated 2011)
# Where no end group is shown, it is not given here.
# Experiments:
# anti-peptide mouse IgG = assay: Anti-peptide immune response assay (Elisa) on serum of immunized mice; type: in vivo, Male C57BL/6 mice; conditions: for Elisa Test pep before B16FO given / Elisa Test pep after B16FO given: read at 450 nm
# Protocol: In another embodiment, the synthesized oligopeptides were biotinylated at N-terminal using four carbon spacers by Genscript (Pitcataway, N.J. 08554 USA) and conjugated to KLH protein. In an experiment performed on mice animals were procured, immunized, tumor induced and observed for effectiveness of the treatment of oligopeptide-induced immunotherapy.
# The injections were prepared using 100 μl l of KLH conjugated biotinylated peptides and 100 μl of complete Freund's adjuvant (Sigma, St. Louis, Mo.).
# (§1) Male C57BL/6 mice 6 weeks of age on arrival were purchased from Simonsen Laboratories, Gilroy, Calif. and maintained in microisolator cage under pathogen-free conditions on a 12-h light/12-h dark schedule for a week. All animals were cared for in accordance with institutional guidelines for the care and use of experimental animals. After housing for a week, the mice (n=5/group) were immunized by intraperitoneal injection on Day 0, and incomplete Freund adjuvant (Sigma) on Day 7, 14 and 28. The blood samples were tested for their immune response by standard Elisa test using microtiter plates. Repeating injections of synthetic peptides in mice produce an immune response to specific individual peptides. Various dilutions were tried and examples of dilutions tried are 1:100, 1:1000 and 1:10000.
# All four peptides were conjugated covalently to keyhole limpet hemocyanin (KLH) protein. In a typical experiment 1 mg of the peptide, 4 mg of KLH was dissolved in 5 ml of 0.01 M NaHCO3 and 2 μl of glutaraldehyde and stirred overnight. At the end 100 μl of 1M glycine ethyl ester to the final concentration of 0.1 M and left for 30 min at room temperature. Then precipitated with 4-5 vol of cold acetone at −70 C for 30 minute. Then briefly warmed at room temperature and pellet at 10,000 g for 10 min. The pellet was dissolved in 1 ml of 0.1M NaHCO3 and stored at −20° C.
# Microtiter plates were coated with individual peptide in 100 µl/well […] carbonate buffer, pH 9.5 for 20 h at 20° C. After washing, wells were incubated with serial dilution of mouse serum in PBS/0.5% BSA, Tween 20 (binding buffer, BB). After washing, well were incubated with 100 µl/well rabbit anti-mouse IgG polyclonal antibody conjugated with horseradish peroxidase (HRP) in BB for 30 rain at 37° C. After washing, the titer of anti-peptide mouse IgG was determined by color reaction with TMB substrate solution at 450 nm.
# [1] = system: murine melanoma B16F0 cells; assay: Tumor growth after challenge of immunized mice with melanoma cells; type: in vivo, Male C57BL/6 mice; conditions: visual, FIG. 7 A-E
# From the text: as §1
# After dosing the mice, on 45th day, mice were bleed through orbital puncture and blood was collected in 2-ml micro centrifuged tube. After testing for immune response against individual peptides, the mice in each group were inoculated subcutaneously with 0.5×10^6 in 0.2 ml PBS. After injection, the mice were returned the cages and fed regular Purina mouse chow diet. After four weeks, the mice were sacrificed and their tumors were excised. Dimensions (length and width) of tumors were measured using digital caliper, and tumor burden was calculated using the following formula: […].
# [2] = system: human cervical cancer HeLa cells; assay: Matrigel invasion with anti-sera from immunized mice; type: cell-based; conditions: anti-sera 1:100 dilution, 24 hours, FIGS. 3A-3D
# Protocol: Human cervical cancer (Hela) and murine melanoma B16F0 cells obtained from ATCC (American Type Culture Collection, Rockville, Md.) were maintained in Dulbecco's modified Eagle's medium supplemented with 10% fetal bovine serum and antibiotics. The media and sera used were obtained from ATCC, and antibiotics (penicillin and streptomycin) were from Gibco BRL, Long Island, N.Y.
# Invasion studies were conducted using Matrigel™ (Becton Dickinson) inserts in 24-well plates. Suspended in medium containing anti-sera from the experimental immunized mice 1:100 dilution, human cervical cancer HeLa cells seeded on the insert in the well. The well has human dermal fibroblast primed media as chemotaxtant. The plates with the inserts were then incubated in a culture incubator equilibrated with 95% air and 5% CO: for 24 hours. After incubation, the media from the wells were withdrawn. The cells on the upper surface of the insert were gently scrubbed away with cotton swabs. The cells that had penetrated the Matrigel™ membrane were stained with hematoxylin and eosin (H&E) and visually counted under the microscope.
# [3] = column 5, serum dilution 1:1000
# [4] = column 5, serum dilution 1:10000
# [5] = column 6, serum dilution 1:1000
# [6] = column 6, serum dilution 1:10000
# [7] = column 7, serum dilution 1:1000
# [8] = column 7, serum dilution 1:10000
# [9] = column 8, serum dilution 1:1000
# [10] = column 8, serum dilution 1:10000
# [11] = column 9, serum dilution 1:1000
# [12] = column 9, serum dilution 1:10000
# [13] = column 10, serum dilution 1:100
# [14] = column 10, serum dilution 1:1000
# [15] = column 10, serum dilution 1:10000
# [16] = column 11, serum dilution 1:100
# [17] = column 11, serum dilution 1:1000
# [18] = column 11, serum dilution 1:10000
# [19] = column 12, serum dilution 1:100
# [20] = column 12, serum dilution 1:1000
# [21] = column 12, serum dilution 1:10000
substance,measurement,setting,value
"-D-R-D-K-L-F-G-F-C-P-T-R-A-D-S- (DRDKLFGFCPTRADS; also: biotinylated, KLH conjugate) [MMP-9 A-3, MMP-9 oligopeptide, biotinylated and conjugated to KLH for immunization]",Elisa Test pep before B16FO given,"anti-peptide mouse IgG; column 5, serum dilution 1:100",3.775
same,Elisa Test pep before B16FO given,anti-peptide mouse IgG; [3],.394
same,Elisa Test pep before B16FO given,anti-peptide mouse IgG; [4],.159
same,Elisa Test pep before B16FO given,"anti-peptide mouse IgG; column 6, serum dilution 1:100",3.810
same,Elisa Test pep before B16FO given,anti-peptide mouse IgG; [5],2.157
same,Elisa Test pep before B16FO given,anti-peptide mouse IgG; [6],.631
same,Elisa Test pep before B16FO given,"anti-peptide mouse IgG; column 7, serum dilution 1:100",1.991
same,Elisa Test pep before B16FO given,anti-peptide mouse IgG; [7],.272
same,Elisa Test pep before B16FO given,anti-peptide mouse IgG; [8],.159
same,Elisa Test pep before B16FO given,"anti-peptide mouse IgG; column 8, serum dilution 1:100",3.812
same,Elisa Test pep before B16FO given,anti-peptide mouse IgG; [9],2.281
same,Elisa Test pep before B16FO given,anti-peptide mouse IgG; [10],.267
same,Elisa Test pep after B16FO given,"anti-peptide mouse IgG; column 9, serum dilution 1:100",3.776
same,Elisa Test pep after B16FO given,anti-peptide mouse IgG; [11],.448
same,Elisa Test pep after B16FO given,anti-peptide mouse IgG; [12],.167
same,Elisa Test pep after B16FO given,anti-peptide mouse IgG; [13],3.814
same,Elisa Test pep after B16FO given,anti-peptide mouse IgG; [14],1.332
same,Elisa Test pep after B16FO given,anti-peptide mouse IgG; [15],.209
same,Elisa Test pep after B16FO given,anti-peptide mouse IgG; [16],2.063
same,Elisa Test pep after B16FO given,anti-peptide mouse IgG; [17],.448
same,Elisa Test pep after B16FO given,anti-peptide mouse IgG; [18],.158
same,Elisa Test pep after B16FO given,anti-peptide mouse IgG; [19],3.84
same,Elisa Test pep after B16FO given,anti-peptide mouse IgG; [20],2.34
same,Elisa Test pep after B16FO given,anti-peptide mouse IgG; [21],.296
same,size of excised tumors,[1],one of the tumors have completely disappeared
"-D-T-D-D-R-F-G-F- (DTDDRFGF; also: biotinylated, KLH conjugate) [M MP-9 A-2, MMP-9 oligopeptide, biotinylated and conjugated to KLH for immunization]",Elisa Test pep before B16FO given,"anti-peptide mouse IgG; column 5, serum dilution 1:100",3.581
same,Elisa Test pep before B16FO given,anti-peptide mouse IgG; [3],.646
same,Elisa Test pep before B16FO given,anti-peptide mouse IgG; [4],.224
same,Elisa Test pep before B16FO given,"anti-peptide mouse IgG; column 6, serum dilution 1:100",3.863
same,Elisa Test pep before B16FO given,anti-peptide mouse IgG; [5],1.339
same,Elisa Test pep before B16FO given,anti-peptide mouse IgG; [6],.261
same,Elisa Test pep before B16FO given,"anti-peptide mouse IgG; column 7, serum dilution 1:100",3.870
same,Elisa Test pep before B16FO given,anti-peptide mouse IgG; [7],2.856
same,Elisa Test pep before B16FO given,anti-peptide mouse IgG; [8],.477
same,Elisa Test pep before B16FO given,"anti-peptide mouse IgG; column 8, serum dilution 1:100",3.238
same,Elisa Test pep before B16FO given,anti-peptide mouse IgG; [9],.360
same,Elisa Test pep before B16FO given,anti-peptide mouse IgG; [10],.175
same,Elisa Test pep after B16FO given,"anti-peptide mouse IgG; column 9, serum dilution 1:100",3.635
same,Elisa Test pep after B16FO given,anti-peptide mouse IgG; [11],.526
same,Elisa Test pep after B16FO given,anti-peptide mouse IgG; [12],.203
same,Elisa Test pep after B16FO given,anti-peptide mouse IgG; [13],3.609
same,Elisa Test pep after B16FO given,anti-peptide mouse IgG; [14],.859
same,Elisa Test pep after B16FO given,anti-peptide mouse IgG; [15],.235
same,Elisa Test pep after B16FO given,anti-peptide mouse IgG; [16],3.465
same,Elisa Test pep after B16FO given,anti-peptide mouse IgG; [17],.277
same,Elisa Test pep after B16FO given,anti-peptide mouse IgG; [18],.161
same,Elisa Test pep after B16FO given,anti-peptide mouse IgG; [19],3.86
same,Elisa Test pep after B16FO given,anti-peptide mouse IgG; [20],.274
same,Elisa Test pep after B16FO given,anti-peptide mouse IgG; [21],.348
"-C-H-F-P-F-I-F-E-G-R-S-Y-S-A-C- (CHFPFIFEGRSYSAC; cysteine pairing not given here; also: biotinylated, KLH conjugate) [MMP-9 A-1, MMP-9 oligopeptide, biotinylated and conjugated to KLH for immunization]",Elisa Test pep before B16FO given,"anti-peptide mouse IgG; column 5, serum dilution 1:100",3.898
same,Elisa Test pep before B16FO given,anti-peptide mouse IgG; [3],3.402
same,Elisa Test pep before B16FO given,anti-peptide mouse IgG; [4],.394
same,Elisa Test pep before B16FO given,"anti-peptide mouse IgG; column 6, serum dilution 1:100",3.868
same,Elisa Test pep before B16FO given,anti-peptide mouse IgG; [5],1.901
same,Elisa Test pep before B16FO given,anti-peptide mouse IgG; [6],.274
same,Elisa Test pep before B16FO given,"anti-peptide mouse IgG; column 7, serum dilution 1:100",3.843
same,Elisa Test pep before B16FO given,anti-peptide mouse IgG; [7],1.033
same,Elisa Test pep before B16FO given,anti-peptide mouse IgG; [8],.228
same,Elisa Test pep before B16FO given,"anti-peptide mouse IgG; column 8, serum dilution 1:100",3.895
same,Elisa Test pep before B16FO given,anti-peptide mouse IgG; [9],2.127
same,Elisa Test pep before B16FO given,anti-peptide mouse IgG; [10],.330
same,Elisa Test pep after B16FO given,"anti-peptide mouse IgG; column 9, serum dilution 1:100",3.897
same,Elisa Test pep after B16FO given,anti-peptide mouse IgG; [11],3.624
same,Elisa Test pep after B16FO given,anti-peptide mouse IgG; [12],.645
same,Elisa Test pep after B16FO given,anti-peptide mouse IgG; [13],3.864
same,Elisa Test pep after B16FO given,anti-peptide mouse IgG; [14],1.875
same,Elisa Test pep after B16FO given,anti-peptide mouse IgG; [15],.244
same,Elisa Test pep after B16FO given,anti-peptide mouse IgG; [16],3.820
same,Elisa Test pep after B16FO given,anti-peptide mouse IgG; [17],.999
same,Elisa Test pep after B16FO given,anti-peptide mouse IgG; [18],.226
same,Elisa Test pep after B16FO given,anti-peptide mouse IgG; [19],3.87
same,Elisa Test pep after B16FO given,anti-peptide mouse IgG; [20],2.01
same,Elisa Test pep after B16FO given,anti-peptide mouse IgG; [21],.22
same,cells invading through the Matrigel compared to control,[2],more in number compared to MMP-9 A1 treated cells
"-C-P-R-K-P-K-W-D-K-C- (CPRKPKWDKC; cysteine pairing not given here; also: biotinylated, KLH conjugate) [MMP-2 A-4, MMP-2 oligopeptide, biotinylated and conjugated to KLH for immunization]",intensity of immune response,anti-peptide mouse IgG; 1:100 dilution,slightly less
same,Elisa Test pep before B16FO given,"anti-peptide mouse IgG; column 5, serum dilution 1:100",1.485
same,Elisa Test pep before B16FO given,anti-peptide mouse IgG; [3],.650
same,Elisa Test pep before B16FO given,anti-peptide mouse IgG; [4],.220
same,Elisa Test pep before B16FO given,"anti-peptide mouse IgG; column 6, serum dilution 1:100",2.409
same,Elisa Test pep before B16FO given,anti-peptide mouse IgG; [5],.974
same,Elisa Test pep before B16FO given,anti-peptide mouse IgG; [6],.257
same,Elisa Test pep before B16FO given,"anti-peptide mouse IgG; column 7, serum dilution 1:100",1.811
same,Elisa Test pep before B16FO given,anti-peptide mouse IgG; [7],.771
same,Elisa Test pep before B16FO given,anti-peptide mouse IgG; [8],.208
same,Elisa Test pep before B16FO given,"anti-peptide mouse IgG; column 8, serum dilution 1:100",1.649
same,Elisa Test pep before B16FO given,anti-peptide mouse IgG; [9],.289
same,Elisa Test pep before B16FO given,anti-peptide mouse IgG; [10],.168
same,Elisa Test pep after B16FO given,"anti-peptide mouse IgG; column 9, serum dilution 1:100",1.836
same,Elisa Test pep after B16FO given,anti-peptide mouse IgG; [11],.706
same,Elisa Test pep after B16FO given,anti-peptide mouse IgG; [12],.290
same,Elisa Test pep after B16FO given,anti-peptide mouse IgG; [13],3.172
same,Elisa Test pep after B16FO given,anti-peptide mouse IgG; [14],1.286
same,Elisa Test pep after B16FO given,anti-peptide mouse IgG; [15],.313
same,Elisa Test pep after B16FO given,anti-peptide mouse IgG; [16],2.278
same,Elisa Test pep after B16FO given,anti-peptide mouse IgG; [17],.775
same,Elisa Test pep after B16FO given,anti-peptide mouse IgG; [18],.230
same,Elisa Test pep after B16FO given,anti-peptide mouse IgG; [19],1.621
same,Elisa Test pep after B16FO given,anti-peptide mouse IgG; [20],.294
same,Elisa Test pep after B16FO given,anti-peptide mouse IgG; [21],.167
